Measured values: paper PMC5447756, “Identification of Epigallocatechin-3- Gallate as an Inhibitor of Phosphoglycerate Mutase 1” (Frontiers in Pharmacology, 2017)

What was measured:
PGAM1 R116K mutant = tested on: T1, PGAM1 R116K mutant; experiment: Inhibition of PGAM1 R116K mutant; assay type: biochemical, human; conditions: compared to the wild-type PGAM1
T1 construct: His; made in house; host or cells: E. coli BL21
Protocol: (§1) BL21 competent cells were transformed by His-tagged pETDuet-1-PGAM1 (wildtype or mutants) or His-tagged pETDuet-1-PHGDH constructs. Cells were collected, resuspended in buffer A (20 mM Tris, 200 mM NaCl, 20 mM imidazole, pH 8.0) and sonicated on ice until complete lysis. His-tagged PGAM1, PGAM1 mutants or PHGDH recombinant proteins in supernatant were purified using Ni-NTA beads (QIAGEN), washed with buffer A, and eluted with buffer B (20 mM Tris, 200 mM NaCl, 250 mM imidazole, pH 8.0). All obtained proteins were stored at -80°C.
(§2) Recombinant PGAM1 enzymatic activity was measured by a multiple enzymes coupled assay. In brief, assay was conducted in 10 μL buffer (50 mM HEPES, PH 7.5, 10 mM MgCl2) containing 5 μL 1 mg/ml recombinant PGAM1 enzyme, 2.5 μL test compound, 2.5 μL 1 mM ADP, 1 mM 3-PG, 0.5 units/ml enolase (Sigma–Aldrich) and 0.5 units/mL recombinant pyruvate kinase M1 (Sigma–Aldrich). The production of ATP was measured by Kinase-Glo® Max Luminescent Kinase Assay (Promega).
(§3) H186R was a well-validated catalytically dead mutant of PGAM1 ([Zhang et al., 2016]; [Qu et al., 2017]), which was used as a control (Figure 2B).

PGAM1 R191K mutant = tested on: T2, PGAM1 R191K mutant; experiment: Inhibition of PGAM1 R191K mutant; assay type: biochemical, human; conditions: compared to the wild-type PGAM1
T2 construct: His; made in house; host or cells: E. coli BL21
Protocol: as §1, §2, §3

NCI-H1299 cells [1] = experiment: Intracellular 2-PG measurement; assay type: cell-based, human; conditions: NCI-H1299, 24 h, free compound
Protocol: A 2-Phosphoglycerate Colorimetric/Fluorometric Assay kit (BioVision) was used to measure cellular 2-PG level. Cells were collected after exposure to compounds for 24 h, washed with PBS, and lysed with ice-cold 2-PG assay buffer. […] The samples were measured by using EnVision® at Ex 535 Em 587 nm.

PGAM1 R10K mutant = tested on: T3, PGAM1 R10K mutant; experiment: Inhibition of PGAM1 R10K mutant; assay type: biochemical, human; conditions: compared to the wild-type PGAM1
T3 construct: His; made in house; host or cells: E. coli BL21
Protocol: as §1, §2, §3

human xenograft tumors = tested on: human xenograft tumors; design: method as in Hitosugi et al., 2012; conditions: mice models carrying human xenograft tumors; ref Hitosugi et al., 2012; cited from earlier work
[2] = tested on: T4, phosphoglycerate dehydrogenase (PHGDH); experiment: PHGDH enzymatic assay; assay type: biochemical; conditions: at a concentration up to 100 μM
T4 construct: His; made in house; host or cells: E. coli BL21
Protocol: Assays were conducted in 10 μL buffer (200 mM Tris-HCl pH8.1, 400 mM KCl, 2 mM GSH, and 10 mM EDTA) containing recombinant PHGDH, 0.6 mM NAD, 1 mM 3-PG. The NADH product can be measured by diaphorase/rezasurin system.

PGAM1 [3] = target: T5, PGAM1 (Homo sapiens, UniProt P18669); experiment: PGAM1 coupled enzymatic assay (PKM1/enolase, Kinase-Glo); assay type: biochemical; conditions: recombinant PGAM1, coupled enzyme assay; read-out: IC50, inhibition of PGAM1
T5 construct: His; made in house; host or cells: E. coli BL21
T5 sequence (P18669 whole entry): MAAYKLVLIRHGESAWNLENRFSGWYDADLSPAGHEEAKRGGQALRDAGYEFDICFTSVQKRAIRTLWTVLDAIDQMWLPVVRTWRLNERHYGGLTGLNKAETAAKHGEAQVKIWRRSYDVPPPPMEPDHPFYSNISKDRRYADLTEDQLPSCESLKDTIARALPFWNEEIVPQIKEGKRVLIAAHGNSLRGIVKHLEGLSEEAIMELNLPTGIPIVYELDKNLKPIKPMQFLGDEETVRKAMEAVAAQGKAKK
From the text: To identify new PGAM1 inhibitors, we utilized a coupled PGAM1 and pyruvate kinase isozymes M1 (PKM1)/enolase biochemical assay followed by a counter screen to exclude compounds with activity toward PKM1 or enolase. […] Using these biochemical assays, we screened a chemical library composed of 800 purified compounds derived from natural products.

PGAM1 [4] = target: T5, PGAM1; experiment: Surface plasmon resonance binding to PGAM1; conditions: SPR, 25°C, 1:1 Langmuir binding model; read-out: dissociation constant (Kd-value)
Protocol: Surface plasmon resonance (SPR) assay was carried out with a ProteOn XPR36 instrument (Bio-Rad). PGAM1 was coupled to the surface of a GLH sensor chip according to the manufacturer’s instructions. […] Resonance units (RU) changes represent the binding condition. The dissociation constant (Kd) was calculated using the ProteOn Manager 3.1 software program by fitting to a 1:1 Langmuir binding model.

[5] = tested on: T6, mutant isocitrate dehydrogenase 1 (IDH1 R132H); experiment: IDH enzymatic assay; assay type: biochemical; conditions: at a concentration up to 100 μM
T6 construct: purchased Cayman Chemical
Protocol: Assays were conducted in 10 μL buffer [150 mM NaCl, 20 mM Tris pH7.5, 10 mM MgCl2, 0.05% (w/v) bovine serum albumin] containing 2.5 μL of test compound, 5 μL enzyme solution (10 ng/μL mutant IDH, Cayman Chemical) and 2.5 μL substrate solution (1 mM α-KG, 4 μM NADPH) added into a 384-well plate followed by incubation at room temperature for 60 min. After incubation, NADPH remaining amount was measured by adding 5 μL buffer containing 5 μM resazurin and 0.01 unit diaphorase and incubated at room temperature for 10 min. The plate was read using EnVision (Perkin Elmer) at Ex 540 Em 590 nm.

Caco-2 monolayer = Caco-2 monolayer permeability; assay type: in vitro ADME; conditions: result in words
Protocol: The solubility of compounds was measured by Nephelometry using the NEPHELOstar plus apparatus (BMG Lab Technologies). Caco-2 monolayer was cultivated on permeable support. In details, after 21-day culture, the integrity of the cell monolayer of every well was verified by measuring the transepithelial electrical resistance (TEER). The diluted solution was added to corresponding well and the plate was incubated at 37°C for 1.5 h. 100 μL samples were collected from both apical and basolateral sides at the initial and end time points and the sample concentrations were measured for the evaluation of mass balance.

NCI-H1299 cells [6] = experiment: Cell proliferation assay, NCI-H1299; assay type: cell-based, human
Protocol: Cells were seeded into a 6-well plate. […] The cells were harvested after incubation for 72 h and the proliferation inhibition rate was calculated by cell number counting (Beckman).

hexokinase 2 (HK2) = tested on: hexokinase 2 (HK2); design: method as in Gao et al., 2015; conditions: human tongue carcinoma; ref Gao et al., 2015; cited from earlier work
PGAM1 [7] = target: T5, PGAM1; experiment: Substrate 3-PG competition, Lineweaver-Burk plot analysis; assay type: biochemical

inhibition of PHGDH [2]	IC50 (PGAM1 [3])	Kd (PGAM1 [4])	inhibition of mutant IDH1 [5]	membrane permeability (Caco-2 monolayer)	pattern of inhibition with substrate 3-PG (PGAM1 [7])	Compound	inhibitory activity toward R116K mutant (PGAM1 R116K mutant)	inhibitory activity toward R191K mutant (PGAM1 R191K mutant)	concentration giving apparent inhibition of intracellular 2-PG level (NCI-H1299 cells [1])	inhibitory activity toward R10K mutant (PGAM1 R10K mutant)	anticancer properties in xenograft mice (human xenograft tumors)	cell growth (NCI-H1299 cells [6]; NCI-H1299, 72 h, cell counting)	effect of stable knockdown of PGAM1 on growth inhibition (NCI-H1299 cells [6]; PGAM1 stable knockdown NCI-H1299 (shPGAM1) vs scramble, 72 h)	expression of hexokinase 2 (HK2) (hexokinase 2 (HK2))
–	–	–	–	–	–	O=C1c2ccccc2C(=O)c2c1cc(S(=O)(=O)Nc1ccc(C(F)(F)F)cc1)c(O)c2O [PGMI-004A, reference compound]	only slightly affect the activity	only slightly affect the activity	20 µM	only slightly affect the activity	exhibited evident anticancer properties	–	–	–
did not inhibit	490 ± 170 nM	780 nM	did not inhibit	extremely low membrane permeability	non-competitive	(-)-Epigallocatechin-3-gallate [EGCG]	lost its inhibitory activity	lost its inhibitory activity	80 µM	lost its inhibitory activity	–	dose-dependently inhibited cell growth	partially rescued	inhibits the expression
